Assay results reported in patent publication US20090011424A1, “Cancer-suppressing agents” (Tokyo Medical and Dental University, priority 2005, published 2009).

System: NR1I2 gene
Assay: RT-PCR of NR1I2 messenger RNA in 8 neuroblastoma cell lines cultured with 5-aza-dCyd
Type: cell-based, human
Conditions: 8 neuroblastoma cell lines lacking NR1I2 mRNA; 1 μM for 5 days
Text: Cell lines used were human-derived neuroblastoma cells SK-N-KS, SK-N-AS, SK-N-SH, SK-N-DZ, SH-SY5Y, MP-N-TS, MP-N-MS, KP-N-RT, KP-N-SIFA, KP-N-SILA, KP-N-TK, KP-N-YS, SMS-KCN, SMS-KAN, SJ-N-CG, NB-1, CHP134, IMR32, and GOTO (Saito-Ohara F, et al. Cancer Res., 63, 1876, 2003), which were derived from […] surgically excised samples. In addition, in order to obtain a material subjected to inhibition of DNA methylation, 5-aza-deoxycytidine (5-aza-dCyd) serving a DNA methyltransferase inhibitor was added to each cell at a concentration of 1 μM for 5 days during culture.
Under general culture conditions, 8 neuroblastoma cell lines lacking the expression of messenger RNA of NR1I2 gene were cultured with the addition of 5-aza-deoxycytidine (5-aza-dCyd) serving as a DNA methyltransferase inhibitor at a concentration of 1 μM for 5 days. The expression levels of messenger RNA of NR1I2 gene in the cells were compared with each other by RT-PCR (FIG. 4). As a control for the expression level obtained by RT-PCR, GAPDH was used.

Nc1ncn([C@H]2C[C@H](O)[C@@H](CO)O2)c(=O)n1 [5-aza-dCyd, 5-aza-deoxycytidine]
expression of messenger RNA of NR1I2 gene: expression of messenger RNA of NR1I2 genes was observed
